Assay results as given in BindingDB's records for doi:10.1016/S0960-894X(01)81215-4 (1993).
Where a SMILES comes first, the peptide text is derived from it. [ ]: non-standard residue; d: D form.

Assay: Displacement of [125I]-ET-1 from Endothelin A receptor of rabbit renal artery vascular smooth muscle cells

**Q.** With `CC[C@H](C)[C@H](NC(=O)[C@H](CC(=O)O)NC(=O)[C@H](CCC(=O)O)NC(=O)[C@@H](Cc1ccccc1)NC(C)=O)C(=O)N[C@H](C(=O)N[C@@H](Cc1c[nH]c2ccccc12)C(=O)O)[C@@H](C)CC` [(S)-4-((R)-2-Acetylamino-3-phenyl-propionylamino)-4-((S)-2-carboxy-1-{(S)-1-[(S)-(S)-1-((S)-1-carboxy-2-(S)-1H-indol-3-yl-ethylcarbamoyl)-2-methyl-butylcarbamoyl]-2-methyl-butylcarbamoyl}-ethylcarbamoyl)-butyric acid] (Ac-[dF]EDIIW-OH) as the molecule, how does the IC50 read?
**A.** The IC50 was 650 nM.
